Assay results from the supplement of paper PMC11451515.

Legend:
Conditions in all cases: 48 h
[1] = test system: P12-Ichikawa; test: cell viability relative to DMSO control; higher = less cytotoxic
How it was run: (§1)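 Viability, reported as a per-plate percentage of DMSO wells with cell-free wells as background, came from CellTiter-Glo One luminescence. Reading took place after 48 h at 37°C. Before that, NOMO1 or SEM (500 cells/well) or P12-Ichikawa (1000 cells/well) leukemia cells, adapted for at least four passages in each medium, were seeded in 1536-well plates (5 μl) and pin-dosed with library compounds in DMSO, 47 μM to 0.79 nM over 11 threefold points.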

[2] = test system: NOMO1; test: as above
How it was run: as §1

[3] = test system: SEM cells; test: as above
How it was run: as §1

[4] = test system: P12-Ichikawa; test: AUC of viability dose-response curve (% viability x log10 dose units); higher = less sensitive
How it was run: (§2)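 Leukemia cells adapted to each medium were seeded at 500 or 1000 cells/well in 1536-well plates and dosed with library compounds in DMSO at 11 threefold doses from 47 μM to 0.79 nM for 48 h at 37°C. CellTiter-Glo One luminescence was normalised per plate to DMSO and cell-free wells, then fitted with a four-parameter log-logistic model over log10 doses. Area under the curve was taken from this fit by the trapezoidal rule, with curves above full viability scaled and curves failing quality control removed.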

[5] = test system: NOMO1; test: as above
How it was run: as §2

[6] = test system: SEM cells; test: as above
How it was run: as §2

CCCCCCCCCCCCCCCCCCCCCCO
cell viability [%]
Conditions	[1]	[2]	[3]
HPLM + 10% dialyzed FBS, 0.000781 µM	122	108	104
HPLM + 10% dialyzed FBS, 0.00234 µM	125	134	95
HPLM + 10% dialyzed FBS, 0.00702 µM	118	120	119
HPLM + 10% dialyzed FBS, 0.0211 µM	125	140	116
HPLM + 10% dialyzed FBS, 0.0632 µM	126	125	110
HPLM + 10% dialyzed FBS, 0.19 µM	126	150	110
HPLM + 10% dialyzed FBS, 0.569 µM	132	133	111
HPLM + 10% dialyzed FBS, 1.71 µM	133	148	127
HPLM + 10% dialyzed FBS, 5.12 µM	127	147	87.8
HPLM + 10% dialyzed FBS, 15.4 µM	137	147	123
HPLM + 10% dialyzed FBS, 46.1 µM	140	129	132
RPMI 5 mM glucose + 10% FBS, 0.000781 µM	–	–	122
RPMI 5 mM glucose + 10% FBS, 0.00234 µM	–	–	113
RPMI 5 mM glucose + 10% FBS, 0.00702 µM	–	–	135
RPMI 5 mM glucose + 10% FBS, 0.0211 µM	–	–	133
RPMI 5 mM glucose + 10% FBS, 0.0632 µM	–	–	129
RPMI 5 mM glucose + 10% FBS, 0.19 µM	–	–	146
RPMI 5 mM glucose + 10% FBS, 0.569 µM	–	–	153
RPMI 5 mM glucose + 10% FBS, 1.71 µM	–	–	156
RPMI 5 mM glucose + 10% FBS, 5.12 µM	–	–	98.4
RPMI 5 mM glucose + 10% FBS, 15.4 µM	–	–	138
RPMI 5 mM glucose + 10% FBS, 46.1 µM	–	–	155
RPMI 5 mM glucose + 10% dialyzed FBS, 0.000781 µM	–	121	102
RPMI 5 mM glucose + 10% dialyzed FBS, 0.00234 µM	–	107	98.1
RPMI 5 mM glucose + 10% dialyzed FBS, 0.00702 µM	–	129	120
RPMI 5 mM glucose + 10% dialyzed FBS, 0.0211 µM	–	128	123
RPMI 5 mM glucose + 10% dialyzed FBS, 0.0632 µM	–	132	118
RPMI 5 mM glucose + 10% dialyzed FBS, 0.19 µM	–	140	115
RPMI 5 mM glucose + 10% dialyzed FBS, 0.569 µM	–	141	118
RPMI 5 mM glucose + 10% dialyzed FBS, 1.71 µM	–	140	132
RPMI 5 mM glucose + 10% dialyzed FBS, 5.12 µM	–	123	87
RPMI 5 mM glucose + 10% dialyzed FBS, 15.4 µM	–	143	116
RPMI 5 mM glucose + 10% dialyzed FBS, 46.1 µM	–	145	138

AUC of viability dose-response curve
Conditions	[4]	[5]	[6]
HPLM + 10% dialyzed FBS	445	458	444
RPMI 5 mM glucose + 10% FBS	461	444	460
RPMI 5 mM glucose + 10% dialyzed FBS	447	456	447

NC1(Cc2ccc(Cl)cc2)CCN(c2ncnc3[nH]ccc23)CC1
cell viability [%]
Conditions	[1]	[2]	[3]
HPLM + 10% dialyzed FBS, 0.000781 µM	105	97.7	103
HPLM + 10% dialyzed FBS, 0.00234 µM	109	93.7	106
HPLM + 10% dialyzed FBS, 0.00702 µM	105	89.9	96
HPLM + 10% dialyzed FBS, 0.0211 µM	108	106	100
HPLM + 10% dialyzed FBS, 0.0632 µM	106	92.9	92.8
HPLM + 10% dialyzed FBS, 0.19 µM	103	105	91.6
HPLM + 10% dialyzed FBS, 0.569 µM	102	116	95.7
HPLM + 10% dialyzed FBS, 1.71 µM	94.7	81.9	75.7
HPLM + 10% dialyzed FBS, 5.12 µM	82.3	82	66.9
HPLM + 10% dialyzed FBS, 15.4 µM	65.8	45.6	6.62
HPLM + 10% dialyzed FBS, 46.1 µM	48.3	29.4	2.55
RPMI 5 mM glucose + 10% FBS, 0.000781 µM	101	106	107
RPMI 5 mM glucose + 10% FBS, 0.00234 µM	99.4	102	117
RPMI 5 mM glucose + 10% FBS, 0.00702 µM	101	88.3	118
RPMI 5 mM glucose + 10% FBS, 0.0211 µM	99.7	101	116
RPMI 5 mM glucose + 10% FBS, 0.0632 µM	91.9	97.4	112
RPMI 5 mM glucose + 10% FBS, 0.19 µM	97.8	90.5	106
RPMI 5 mM glucose + 10% FBS, 0.569 µM	84.7	85.5	86.1
RPMI 5 mM glucose + 10% FBS, 1.71 µM	73.1	90.6	79.6
RPMI 5 mM glucose + 10% FBS, 5.12 µM	53.7	74.5	59.8
RPMI 5 mM glucose + 10% FBS, 15.4 µM	40.7	32.6	4.37
RPMI 5 mM glucose + 10% FBS, 46.1 µM	28.5	16.3	2.8
RPMI 5 mM glucose + 10% dialyzed FBS, 0.000781 µM	103	102	106
RPMI 5 mM glucose + 10% dialyzed FBS, 0.00234 µM	103	92.8	98.6
RPMI 5 mM glucose + 10% dialyzed FBS, 0.00702 µM	104	94.7	99.7
RPMI 5 mM glucose + 10% dialyzed FBS, 0.0211 µM	102	90.2	92.7
RPMI 5 mM glucose + 10% dialyzed FBS, 0.0632 µM	102	102	81.8
RPMI 5 mM glucose + 10% dialyzed FBS, 0.19 µM	91.1	84.9	83.7
RPMI 5 mM glucose + 10% dialyzed FBS, 0.569 µM	91	87.8	82.9
RPMI 5 mM glucose + 10% dialyzed FBS, 1.71 µM	79.6	80.9	74.5
RPMI 5 mM glucose + 10% dialyzed FBS, 5.12 µM	66.9	67.3	54.7
RPMI 5 mM glucose + 10% dialyzed FBS, 15.4 µM	47	33	6.24
RPMI 5 mM glucose + 10% dialyzed FBS, 46.1 µM	34.5	17.7	2.65

AUC of viability dose-response curve
Conditions	[4]	[5]	[6]
HPLM + 10% dialyzed FBS	425	418	377
RPMI 5 mM glucose + 10% FBS	384	395	357
RPMI 5 mM glucose + 10% dialyzed FBS	393	381	352

NC1(C(=O)N[C@@H](CCO)c2ccc(Cl)cc2)CCN(c2ncnc3[nH]ccc23)CC1
AUC of viability dose-response curve
Conditions	[4]	[5]	[6]
HPLM + 10% dialyzed FBS	391	409	375
RPMI 5 mM glucose + 10% FBS	362	413	378
RPMI 5 mM glucose + 10% dialyzed FBS	378	423	356

CC(=O)Nc1ccc(OC[C@](C)(O)C(=O)Nc2ccc([N+](=O)[O-])c(C(F)(F)F)c2)cc1
cell viability [%]
Conditions	[1]	[2]	[3]
HPLM + 10% dialyzed FBS, 0.000781 µM	74.6	66.3	67.5
HPLM + 10% dialyzed FBS, 0.00234 µM	87	68.2	59.4
HPLM + 10% dialyzed FBS, 0.00702 µM	84.5	72.9	69
HPLM + 10% dialyzed FBS, 0.0211 µM	87.8	70.6	75.9
HPLM + 10% dialyzed FBS, 0.0632 µM	85.5	87.7	68.9
HPLM + 10% dialyzed FBS, 0.19 µM	89.1	80.2	72.8
HPLM + 10% dialyzed FBS, 0.569 µM	88.4	88.4	77.1
HPLM + 10% dialyzed FBS, 1.71 µM	88.6	83.5	84
HPLM + 10% dialyzed FBS, 5.12 µM	90.8	83.4	83.4
HPLM + 10% dialyzed FBS, 15.4 µM	91.6	77.8	82.3
HPLM + 10% dialyzed FBS, 46.1 µM	86.5	82.4	54.8
RPMI 5 mM glucose + 10% FBS, 0.000781 µM	63.5	70.5	81.6
RPMI 5 mM glucose + 10% FBS, 0.00234 µM	76.8	76.9	78.3
RPMI 5 mM glucose + 10% FBS, 0.00702 µM	71.1	75.4	77.8
RPMI 5 mM glucose + 10% FBS, 0.0211 µM	87	82.8	103
RPMI 5 mM glucose + 10% FBS, 0.0632 µM	85.5	87	80.8
RPMI 5 mM glucose + 10% FBS, 0.19 µM	77	83	80.2
RPMI 5 mM glucose + 10% FBS, 0.569 µM	80.6	82.8	88.8
RPMI 5 mM glucose + 10% FBS, 1.71 µM	83.8	88.2	90.4
RPMI 5 mM glucose + 10% FBS, 5.12 µM	85.1	76.2	81.8
RPMI 5 mM glucose + 10% FBS, 15.4 µM	86.3	86.9	93.7
RPMI 5 mM glucose + 10% FBS, 46.1 µM	81.2	82.2	44.7
RPMI 5 mM glucose + 10% dialyzed FBS, 0.000781 µM	67.3	72	79.9
RPMI 5 mM glucose + 10% dialyzed FBS, 0.00234 µM	76.4	78.1	79
RPMI 5 mM glucose + 10% dialyzed FBS, 0.00702 µM	77.3	87.3	84.8
RPMI 5 mM glucose + 10% dialyzed FBS, 0.0211 µM	78.2	83.1	108
RPMI 5 mM glucose + 10% dialyzed FBS, 0.0632 µM	92.5	92.7	86.7
RPMI 5 mM glucose + 10% dialyzed FBS, 0.19 µM	76.4	86.1	97.5
RPMI 5 mM glucose + 10% dialyzed FBS, 0.569 µM	80	85.1	88.7
RPMI 5 mM glucose + 10% dialyzed FBS, 1.71 µM	83.4	85.6	93.8
RPMI 5 mM glucose + 10% dialyzed FBS, 5.12 µM	80.3	85.2	71
RPMI 5 mM glucose + 10% dialyzed FBS, 15.4 µM	85.8	92.5	91.7
RPMI 5 mM glucose + 10% dialyzed FBS, 46.1 µM	80.7	78	48

AUC of viability dose-response curve
Conditions	[4]	[5]	[6]
HPLM + 10% dialyzed FBS	416	375	346
RPMI 5 mM glucose + 10% FBS	384	388	399
RPMI 5 mM glucose + 10% dialyzed FBS	383	404	411
